Source: paper PMC12030706, “Novel ^177Lu-Labeled [Thz^14]Bombesin(6–14) Derivatives with Low Pancreas Accumulation for Targeting Gastrin-Releasing Peptide Receptor-Expressing Cancer” (Pharmaceuticals, 2025)

What was measured:
[1] = LogD7.4 measurement, shake flask method; assay type: physicochemical; conditions: n-octanol/DPBS pH 7.4, n = 3
Procedure: The logD7.4 values of all the ^177Lu-labeled GRPR-targeted ligands were measured using the shake flask method as previously reported. An aliquot (~2 MBq) of the radiolabeled product was added to a mixture of n-octanol (3 mL) and DPBS (3 mL, pH 7.4), followed by 1 min vortexing and 15 min centrifugation at 5000 rpm. Samples of the n-octanol (1 mL) and buffer (1 mL) layers were collected, and the activity was counted using a gamma counter. The logD7.4 values were calculated using the following equation: logD7.4=log10[countsn−octanolphase/countsbutterphase]

[2] = tested on: PC-3 tumor-bearing NRG mouse; experiment: Longitudinal SPECT/CT imaging in PC-3 tumor-bearing mice; assay type: in vivo, mice (NRG); conditions: SPECT/CT images
Procedure: The PC-3 tumor-bearing mice were sedated (2.5% isoflurane in O2) and injected with ^177Lu-labeled ligands (15–32 MBq) through a lateral caudal tail vein. […] At each time point, a 5 min CT scan was obtained using 615 μA and 60 kV parameters for localization and attenuation, followed by 2 × 30 min static SPECT scans acquired in list mode with an energy window centered around 208 keV. The MILabs U-SPECT II reconstruction software (version 8.00) was used to reconstruct data, and the images were decay corrected to the time of injection with PMOD v 3.402 (PMOD Technologies GmbH, Fallanden, Switzerland).

[3] = Ex vivo biodistribution in PC-3 tumor-bearing mice; conditions: mouse; for tissue uptake at 4 h: 4 h post-injection; for tissue uptake at 24 h: 24 h post-injection; for tissue uptake at 72 h: 72 h post-injection; for tissue uptake at 120 h: 120 h post-injection
Procedure: SPECT/CT imaging experiments were performed using an MILabs (Houten, The Netherlands) U-SPECT-II/CT scanner with a custom-made ultra-high-sensitivity big mouse collimator (2 mm pinhole size) following previously reported procedures. […] Male NOD.Cg-Rag1^tm1Mom Il2rg^tm1Wjl/SzJ (NRG) mice were used in these experiments because of their immunodeficient characteristics and excellent radiation tolerance. Mice were anaesthetized and subcutaneously implanted with 5 × 10^6 PC-3 prostate cancer cells (100 µL; 1:1 PBS/Matrigel) behind the left shoulder. SPECT/CT imaging and biodistribution studies were performed once the tumors reached a diameter of 5–8 mm, typically after approximately 4 weeks of growth.
For ex vivo biodistribution studies, the mice were injected with ~2–6 MBq of the radioligand. […] Blocking study was conducted at 1 h post-injection via co-injection of the radioligand with 100 μg of [D-Phe^6,Leu-NHEt^13,des-Met^14]Bombesin(6–14). Organs/tissues of interested were collected, weighed, and measured using an automatic gamma counter.

[4] = PC-3 tumor, Uptake in PC-3 tumor
[5] = adrenal glands, Uptake in adrenal glands

## CC(C)C[C@@H](CN1CSC[C@H]1C(N)=O)NC(=O)[C@H](Cc1cnc[nH]1)NC(=O)CN(C)C(=O)[C@@H](NC(=O)[C@H](C)NC(=O)[C@H](Cc1c[nH]c2ccccc12)NC(=O)[C@H](CCC(N)=O)NC(=O)[C@@H](Cc1ccccc1)NC(=O)CN1CCC(NC(=O)CN2CCN(CC(=O)O)CCN(CC(=O)O)CCN(CC(=O)O)CC2)CC1)C(C)C [[^177Lu]Lu-TacsBOMB5, metal not drawn]
[1]
  logD: -2.53 ± 0.2
[2]
  excretion pathway: excreted mainly via the renal pathway
[3]; PC-3 tumor, 100 ug, Uptake in PC-3 tumor, 1 h blocked (co-injected with 100 µg [D-Phe6,Leu-NHEt13,des-Met14]Bombesin(6-14))
  tissue uptake at 1 h: 2.53 ± 0.34 %ID/g
[3]; PC-3 tumor, Uptake in PC-3 tumor, 1 h post-injection
  tissue uptake at 1 h: 8.71 ± 0.53 %ID/g
[3]; [4]
  tissue uptake at 4 h: 4.8 ± 0.32 %ID/g
  tissue uptake at 24 h: 1.77 ± 0.27 %ID/g
  tissue uptake at 72 h: 1.09 ± 0.19 %ID/g
  tissue uptake at 120 h: < 1 %ID/g
[3]; adrenal glands, 100 ug, Uptake in adrenal glands, 1 h blocked (co-injected with 100 µg [D-Phe6,Leu-NHEt13,des-Met14]Bombesin(6-14))
  tissue uptake at 1 h: 0.17 ± 0.04 %ID/g
[3]; adrenal glands, Uptake in adrenal glands, 1 h post-injection
  tissue uptake at 1 h: 0.61 ± 0.28 %ID/g
[3]; [5]
  tissue uptake at 4 h: 0.29 ± 0.07 %ID/g
  tissue uptake at 24 h: 0.17 ± 0.02 %ID/g
  tissue uptake at 72 h: 0.18 ± 0.12 %ID/g
  tissue uptake at 120 h: 0.12 ± 0.08 %ID/g
[3]; blood, 100 ug, Uptake in blood, 1 h blocked (co-injected with 100 µg [D-Phe6,Leu-NHEt13,des-Met14]Bombesin(6-14))
  tissue uptake at 1 h: 0.45 ± 0.11 %ID/g
[3]; blood, Uptake in blood, 1 h post-injection
  tissue uptake at 1 h: 1.77 ± 0.14 %ID/g
[3]; blood, Uptake in blood
  tissue uptake at 24 h: 0.21 ± 0.02 %ID/g
  tissue uptake at 72 h: 0.07 ± 0.01 %ID/g
[3]; bone, 100 ug, Uptake in bone, 1 h blocked (co-injected with 100 µg [D-Phe6,Leu-NHEt13,des-Met14]Bombesin(6-14))
  tissue uptake at 1 h: 0.06 ± 0.03 %ID/g
[3]; bone, Uptake in bone, 1 h post-injection
  tissue uptake at 1 h: 0.12 ± 0.02 %ID/g
[3]; bone, Uptake in bone
  tissue uptake at 4 h: 0.09 ± 0.03 %ID/g
  tissue uptake at 24 h: 0.07 ± 0.02 %ID/g
  tissue uptake at 72 h: 0.07 ± 0.01 %ID/g
  tissue uptake at 120 h: 0.07 ± 0.01 %ID/g
[3]; brain, 100 ug, Uptake in brain, 1 h blocked (co-injected with 100 µg [D-Phe6,Leu-NHEt13,des-Met14]Bombesin(6-14))
  tissue uptake at 1 h: 0.02 %ID/g
[3]; brain, Uptake in brain, 1 h post-injection
  tissue uptake at 1 h: 0.04 %ID/g
[3]; brain, Uptake in brain
  tissue uptake at 4 h: 0.02 %ID/g
[3]; fat, 100 ug, Uptake in fat, 1 h blocked (co-injected with 100 µg [D-Phe6,Leu-NHEt13,des-Met14]Bombesin(6-14))
  tissue uptake at 1 h: 0.06 ± 0.01 %ID/g
[3]; fat, Uptake in fat, 1 h post-injection
  tissue uptake at 1 h: 0.15 ± 0.04 %ID/g
[3]; fat, Uptake in fat
  tissue uptake at 4 h: 0.06 ± 0.01 %ID/g
  tissue uptake at 72 h: 0.02 ± 0.01 %ID/g
  tissue uptake at 120 h: 0.01 ± 0.01 %ID/g
[3]; heart, 100 ug, Uptake in heart, 1 h blocked (co-injected with 100 µg [D-Phe6,Leu-NHEt13,des-Met14]Bombesin(6-14))
  tissue uptake at 1 h: 0.15 ± 0.02 %ID/g
[3]; heart, Uptake in heart, 1 h post-injection
  tissue uptake at 1 h: 0.45 ± 0.06 %ID/g
[3]; heart, Uptake in heart
  tissue uptake at 4 h: 0.21 ± 0.03 %ID/g
  tissue uptake at 24 h: 0.09 ± 0.01 %ID/g
  tissue uptake at 72 h: 0.05 ± 0.01 %ID/g
  tissue uptake at 120 h: 0.04 ± 0.01 %ID/g
[3]; in vivo, Uptake in blood
  tissue uptake at 4 h: 0.85 ± 0.03 %ID/g
[3]; in vivo, Uptake in pancreas
  tissue uptake at 24 h: 0.08 ± 0.02 %ID/g
[3]; in vivo, Uptake in testes
  tissue uptake at 72 h: 0.08 ± 0.04 %ID/g
  tissue uptake at 120 h: 0.08 ± 0.02 %ID/g
[3]; kidneys, 100 ug, Uptake in kidneys, 1 h blocked (co-injected with 100 µg [D-Phe6,Leu-NHEt13,des-Met14]Bombesin(6-14))
  tissue uptake at 1 h: 2.78 ± 0.51 %ID/g
[3]; kidneys, Uptake in kidneys, 1 h post-injection
  tissue uptake at 1 h: 3.47 ± 0.29 %ID/g
[3]; kidneys, Uptake in kidneys
  tissue uptake at 4 h: 3.1 ± 0.35 %ID/g
